Test results as given in patent US20220288051A1, “METHODS FOR TREATING CANCER USING SERIAL ADMINISTRATION OF E3 UBIQUITIN LIGASE DEGRADERS” (Dana-Farber Cancer Institute, Inc., priority 2019, published 2022).

Experiments:
[1] = tested on: MM cells cultured in the presence of bone-marrow stromal cells; experiment: CS-BLI viability in co-culture with bone marrow stromal cells; format: cell-based, human; conditions: co-culture vs MM cells alone
Experimental: (§1) Cell viability and growth of human MM cell lines were assessed using CellTitre-Glo (CTG) assay (Promega, Madison, Wis.) per kit instructions, or CS-BLI as described (Delmore et al., 2011). Briefly, cells were seeded (5×10^3 cells/well) into 96- or 384-well opaque plates, in supplemented media (40 or 50 uL) and incubated for 24 h prior to addition of drug. For co-culture experiments, HS27A cells were pre-seeded (5×10^3 cells/well) into each well in media prior (24 h) to the addition of MM cells. At each time point (24 h, 48 h, and/or 72 h) CTG reagent (10% volume) was added to each well, and plates were read using a microplate reader (BioTek Synergy 2, BioTek, Winooski, Va.).

[2] = tested on: human MM cell lines; experiment: CTG / CS-BLI cell viability of human MM cell lines; format: cell-based
Experimental: as §1

[3] = tested on: MM.1S cells; experiment: Assessment of apoptosis, Annexin V/PI flow cytometry; format: cell-based, human
Experimental: For the assessment of apoptosis, MM.1S cells were seeded into 6-well plates (2×10^6 cells/well) in medium supplemented with 10% FBS and penicillin/streptomycin (3.2 mL) 24 h prior to treatment. Cells were treated with dBET6, JQ1, or vehicle and harvested prior to staining with Annexin V-FITC and PI (BD, Bedford, Mass.). Apoptosis was assessed immediately using flow cytometry (LSR II, BD, Bedford, Mass.)

[4] = tested on: c-Myc; experiment: Immunoblotting of degronimid-treated MM.1S cells: c-Myc; format: cell-based, human; conditions: 0.01-1 μM, 4 h
Experimental: MM.1S cells were seeded in 6-well plates at 3×10^6 cells/well (˜24 h prior to addition of drug). […] Cell pellets were thawed on ice, lysed using RIPA buffer (ThermoFisher) with protease/phosphatase inhibitor cocktail (Cell Signal Technology, Danvers, Mass.) by incubating on ice 30 min. The lysates were clarified by spinning at 10,000 g for 10 min at 4° C. and the concentration of the lysate was determined using BCA protocol (ThermoFisher). Samples were prepared for Western blot using LDS sample buffer (NuPage, Invitrogen, Carlsbad, Calif., USA) with sample reducing agent (NuPage, Invitrogen) and heated to 95° C. for 5 min. Samples were loaded (20 ug/sample) into Tris-acetate or Bis-Tris gels (NuPage, Invitrogen) and run as per kit instructions using appropriate running buffers. Gels were transferred as described (Matthews et al., 2015) onto PVDF membrane using SDS-based transfer buffer (NuPage, Invitrogen). Membranes were blocked (5% skim milk; or 5% bovine serum albumin in TBS-T) for at least 30 min then probed with primary antibodies overnight (4° C.). […] Each protein of interest (BRD2, BRD3, BRD4, c-myc and CDK9) was assessed in a separate gel and corresponding membrane (which was simultaneously incubated with antibodies for both the target protein of interest and GAPDH, to provide a loading control within the same blot). […]

[5] = Tolerability of dBET6 treatment in mice; format: in vivo
Experimental: i. Subcutaneous MM xenograft model: Luciferase-positive MM.1S cells (10×106 Luc-GFP-MM.1S in matrigel) were transplanted into the right flank of NSG mice (100 μL). […] Treatments were carried out daily for 8 days and tumor size assessed daily using calipers. Mice were culled when tumors reached 2000 mm3 or when moribund.
ii. Xenograft model of diffuse MM lesions: Luciferase-positive MM.1S cells (1×106 Luc-GFP-MM.1S) were injected via the tail vein (IV) into NSG mice. […] BLI was undertaken weekly and mice were euthanized when moribund or upon signs of hind-limb paralysis.

[6] = tested on: MM.1S cells; experiment: RNA-sequencing of treated MM.1S cells; format: cell-based, human

With Cc1sc2c(c1C)C(c1ccc(Cl)cc1)=N[C@@H](CC(=O)NCCCCCCCCNC(=O)COc1cccc3c1C(=O)N(C1CCC(=O)NC1=O)C3=O)c1nnc(C)n1-2 (some centres unmarked) [dBET6] as the molecule, how does the “change in responsiveness in the presence of bone-marrow stromal cells” value [1] read?
The value was “No major changes in dBET6 responsiveness”.

And the “suppression of MM cell viability” value ([2]; MM.1S, RPMI-8226, JJN3, 48 h, CTG or CS-BLI, vs JQ1)?
Its value is “more pronounced suppression of MM cell viability than JQ1”.

What about the “in vitro anti-MM activity” value ([2]; human MM cell lines, dBET6 compared to dBET1 or JQ1) of the same molecule?
The value was “more potent in vitro anti-MM activity of dBET6 compared to dBET1 or JQ1”.

And the loss of viability ([2]; larger panel of human MM cell lines, 48 h)?
The loss of viability was “significant loss of viability in all lines tested”.

And the “exposure prior to drug washout sufficient to commit cells to cell death” value ([3]; MM.1S cells, Annexin V/PI staining)?
Its value is at most 4 h.

And the pro-apoptotic response ([3]; human MM.1S cells, 0.01 μM or 0.05 μM)?
The pro-apoptotic response was “dose- and time-dependent pro-apoptotic response”.

And the c-Myc protein levels [4]?
Its c-Myc protein levels is “rapid and robust depletion”.

What about the tolerability ([5]; doses and schedules reported) of the same molecule?
The tolerability was “Mice tolerated dBET6 treatment”.

And the “efficacy or tolerability of alternative regimens” value ([5]; pilot experiments, lower or higher dose intensity (data not shown))?
Its value is “less efficacy or tolerability, respectively”.

And the “transcriptional profile (RNA-Seq), down-regulated transcripts” value ([6]; dBET6 0.1 or 0.5 μM vs JQ1 0.5 μM, 4 h)?
The value was “down-regulation of a larger group of transcripts”.

What about the “suppression of c-MYC at transcript level” value ([6]; dBET6 vs JQ1-treated MM.1S cells) of the same molecule?
Its value is “more pronounced suppression of c-MYC”.
